Reference: the supplement of paper PMC11451515

Key:
Conditions in all cases: 48 h
SEM cells [1] = test: cell viability relative to DMSO control; higher = less cytotoxic
In short: (§1)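 In 1536-well plates, 5 μl of leukemia cells were seeded per well: 500 cells/well for NOMO1 or SEM and 1000 cells/well for P12-Ichikawa. Each line had first been adapted for at least four passages in each medium. Library compounds in DMSO were pin-dosed at 11 threefold concentrations between 47 μM and 0.79 nM, and CellTiter-Glo One luminescence was read after 48 h at 37°C. Viability is a per-plate percentage relative to DMSO wells, with cell-free wells as background.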

NOMO1 [2] = test: as above
In short: as §1

P12-Ichikawa [3] = test: as above
In short: as §1

SEM cells [4] = test: AUC of viability dose-response curve (% viability x log10 dose units); higher = less sensitive
In short: (§2)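 Leukemia cells adapted to each medium (500 or 1000 cells/well, 1536-well plates) were exposed to library compounds in DMSO for 48 h at 37°C at 11 threefold doses, 47 μM to 0.79 nM. Luminescence by CellTiter-Glo One was normalised per plate to DMSO and cell-free wells, then fitted with a four-parameter log-logistic curve on log10 dose. Curves above full viability were scaled and quality-control failures removed before area under the curve was integrated by trapezoidal rule.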

NOMO1 [5] = test: as above
In short: as §2

P12-Ichikawa [6] = test: as above
In short: as §2

CCCCOc1c(C(=O)c2c(F)cc(C)cc2F)cnc2[nH]ncc12
cell viability [%]
Conditions | NOMO1 [2] | P12-Ichikawa [3] | SEM cells [1]
HPLM + 10% dialyzed FBS, 0.000781 µM | 95.9 | 97.5 | 107
HPLM + 10% dialyzed FBS, 0.00234 µM | 113 | 102 | 111
HPLM + 10% dialyzed FBS, 0.00702 µM | 107 | 104 | 104
HPLM + 10% dialyzed FBS, 0.0211 µM | 103 | 109 | 110
HPLM + 10% dialyzed FBS, 0.0632 µM | 103 | 107 | 115
HPLM + 10% dialyzed FBS, 0.19 µM | 109 | 89.6 | 108
HPLM + 10% dialyzed FBS, 0.569 µM | 103 | 104 | 108
HPLM + 10% dialyzed FBS, 1.71 µM | 119 | 107 | 92
HPLM + 10% dialyzed FBS, 5.12 µM | 89.1 | 102 | 70.4
HPLM + 10% dialyzed FBS, 15.4 µM | 96.2 | 91.3 | 64.1
HPLM + 10% dialyzed FBS, 46.1 µM | 68.9 | 95.5 | 30.9
RPMI 5 mM glucose + 10% FBS, 0.000781 µM | 89.4 | 104 | 104
RPMI 5 mM glucose + 10% FBS, 0.00234 µM | 98.2 | 99 | 105
RPMI 5 mM glucose + 10% FBS, 0.00702 µM | 82.7 | 107 | 103
RPMI 5 mM glucose + 10% FBS, 0.0211 µM | 96.7 | 102 | 113
RPMI 5 mM glucose + 10% FBS, 0.0632 µM | 98.7 | 104 | 114
RPMI 5 mM glucose + 10% FBS, 0.19 µM | 94 | 108 | 118
RPMI 5 mM glucose + 10% FBS, 0.569 µM | 95.6 | 103 | 114
RPMI 5 mM glucose + 10% FBS, 1.71 µM | 93.6 | 105 | 89.6
RPMI 5 mM glucose + 10% FBS, 5.12 µM | 98.9 | 88.4 | 60.6
RPMI 5 mM glucose + 10% FBS, 15.4 µM | 90.3 | 94.4 | 71.8
RPMI 5 mM glucose + 10% FBS, 46.1 µM | 79.1 | 77.9 | 35.6
RPMI 5 mM glucose + 10% dialyzed FBS, 0.000781 µM | 97.6 | 107 | 93.2
RPMI 5 mM glucose + 10% dialyzed FBS, 0.00234 µM | 96.3 | 104 | 96.5
RPMI 5 mM glucose + 10% dialyzed FBS, 0.00702 µM | 100 | 102 | 96.9
RPMI 5 mM glucose + 10% dialyzed FBS, 0.0211 µM | 92.6 | 104 | 86.8
RPMI 5 mM glucose + 10% dialyzed FBS, 0.0632 µM | 92.7 | 101 | 107
RPMI 5 mM glucose + 10% dialyzed FBS, 0.19 µM | 85.5 | 97.4 | 106
RPMI 5 mM glucose + 10% dialyzed FBS, 0.569 µM | 83.1 | 93.8 | 104
RPMI 5 mM glucose + 10% dialyzed FBS, 1.71 µM | 86.7 | 94.6 | 84.4
RPMI 5 mM glucose + 10% dialyzed FBS, 5.12 µM | 70.6 | 78.9 | 71.6
RPMI 5 mM glucose + 10% dialyzed FBS, 15.4 µM | 88.4 | 89.6 | 56.8
RPMI 5 mM glucose + 10% dialyzed FBS, 46.1 µM | 84.3 | 81.3 | 25.3

AUC of viability dose-response curve
Conditions | NOMO1 [5] | P12-Ichikawa [6] | SEM cells [4]
HPLM + 10% dialyzed FBS | 460 | 470 | 410
RPMI 5 mM glucose + 10% FBS | 444 | 458 | 410
RPMI 5 mM glucose + 10% dialyzed FBS | 424 | 435 | 413

Cc1ccnc2c1NC(=O)c1cccnc1N2C1CC1
cell viability [%]
Conditions | NOMO1 [2] | P12-Ichikawa [3] | SEM cells [1]
HPLM + 10% dialyzed FBS, 0.000781 µM | 102 | 97.4 | 63.6
HPLM + 10% dialyzed FBS, 0.00234 µM | 104 | 113 | 84.2
HPLM + 10% dialyzed FBS, 0.00702 µM | 98.7 | 112 | 97.9
HPLM + 10% dialyzed FBS, 0.0211 µM | 121 | 106 | 101
HPLM + 10% dialyzed FBS, 0.0632 µM | 112 | 112 | 95.8
HPLM + 10% dialyzed FBS, 0.19 µM | 112 | 115 | 97.2
HPLM + 10% dialyzed FBS, 0.569 µM | 113 | 115 | 106
HPLM + 10% dialyzed FBS, 1.71 µM | 89.7 | 116 | 107
HPLM + 10% dialyzed FBS, 5.12 µM | 55.3 | 105 | 91.8
HPLM + 10% dialyzed FBS, 15.4 µM | 61.4 | 106 | 102
HPLM + 10% dialyzed FBS, 46.1 µM | 35.8 | 109 | 111
RPMI 5 mM glucose + 10% FBS, 0.000781 µM | 85.2 | 98.3 | 83.7
RPMI 5 mM glucose + 10% FBS, 0.00234 µM | 107 | 109 | 85.2
RPMI 5 mM glucose + 10% FBS, 0.00702 µM | 93.1 | 117 | 84.6
RPMI 5 mM glucose + 10% FBS, 0.0211 µM | 100 | 108 | 85.4
RPMI 5 mM glucose + 10% FBS, 0.0632 µM | 103 | 110 | 96.7
RPMI 5 mM glucose + 10% FBS, 0.19 µM | 118 | 116 | 96.8
RPMI 5 mM glucose + 10% FBS, 0.569 µM | 93.3 | 113 | 90.9
RPMI 5 mM glucose + 10% FBS, 1.71 µM | 84.1 | 115 | 101
RPMI 5 mM glucose + 10% FBS, 5.12 µM | 59.3 | 102 | 99.4
RPMI 5 mM glucose + 10% FBS, 15.4 µM | 68.1 | 95.2 | 105
RPMI 5 mM glucose + 10% FBS, 46.1 µM | 59.1 | 96.5 | 99.6
RPMI 5 mM glucose + 10% dialyzed FBS, 0.000781 µM | 94.8 | 93.5 | 90.8
RPMI 5 mM glucose + 10% dialyzed FBS, 0.00234 µM | 102 | 106 | 86.6
RPMI 5 mM glucose + 10% dialyzed FBS, 0.00702 µM | 110 | 99.9 | 94.5
RPMI 5 mM glucose + 10% dialyzed FBS, 0.0211 µM | 98.6 | 110 | 90.1
RPMI 5 mM glucose + 10% dialyzed FBS, 0.0632 µM | 113 | 108 | 90.1
RPMI 5 mM glucose + 10% dialyzed FBS, 0.19 µM | 97.1 | 106 | 89.7
RPMI 5 mM glucose + 10% dialyzed FBS, 0.569 µM | 110 | 104 | 93
RPMI 5 mM glucose + 10% dialyzed FBS, 1.71 µM | 97.4 | 111 | 90.4
RPMI 5 mM glucose + 10% dialyzed FBS, 5.12 µM | 52.7 | 97.1 | 105
RPMI 5 mM glucose + 10% dialyzed FBS, 15.4 µM | 79.4 | 98.8 | 101
RPMI 5 mM glucose + 10% dialyzed FBS, 46.1 µM | 79.4 | 96.8 | 93.6

AUC of viability dose-response curve
Conditions | NOMO1 [5] | P12-Ichikawa [6] | SEM cells [4]
HPLM + 10% dialyzed FBS | 405 | 474 | 457
RPMI 5 mM glucose + 10% FBS | 424 | 464 | 439
RPMI 5 mM glucose + 10% dialyzed FBS | 436 | 473 | 444
